# In patent US20110046102A1, “AZABICYCLIC COMPOUNDS, PREPARATION THEREOF AND USE OF SAME AS DRUGS, ESPECIALLY BETA-LACTAMASE INHIBITORS” (Novexel, priority 2008, published 2011):
# Structures can show the parent of a compound that is named as a salt.
# Columns and labels:
# [1] = tested on: C. freundii 261GR6 (AmpC); experiment: MIC of ceftazidime alone or with inhibitor, micro-dilution in liquid medium, strain 261GR6; type: cell-based; conditions: 24 h; for MIC of CAZ in combination with inhibitor (CAZ-Inhibitor): inhibitor at constant 4 μg/mL
# Method: (§1) II/ The evidenced β-lactamase inhibiting activity potentialises the antibacterial activity of antibiotics of β-lactam type, and therefore leads to a synergic effect, as is shown by the results given below which express the minimum inhibitory concentration in vitro (MIC in μg/ml), against a certain number of pathogenic microorganisms, and of combinations of ceftazidime (<<CAZ >>) with formula (I) compounds at a concentration of 4 mg/l. Operations are as follows using the so-called micro-dilution method in liquid medium.
# (§2) A series of β-lactam concentrations are prepared in the presence of a constant concentration (4 mg/l) of the product to be assayed, each is then seeded with various bacterial strains.
# (§3) After 24-hour incubation in an oven at 37° C. growth inhibition is assessed via the lack of any bacterial growth, which allows determination of the minimum inhibitory concentrations (MICs) for each strain, expressed in milligrams/l.
# [2] = molecular target: T1, E. cloacae P99 β-lactamase (Enterobacter cloacae, UniProt P05364); experiment: β-lactamase inhibiting activity on isolated enzyme (Nitrocefin hydrolysis), P99; type: biochemical; conditions: 5 min pre-incubation, 100 μM Nitrocefin, pH 7.0, 37° C., mean of at least 2 experiments, read-out: IC50 enzyme inhibition
# T1 construct: The β-lactamases are isolated from bacterial strains resistant to penicillins and cephalosporins; endogenous in cells; host or cells: E. cloacae 293HT6 (soluble fraction of French-press lysate)
# Method: (§4) A. Preparation of Tem-1 and P99 β-lactamases
# (§5) The β-lactamases are isolated from bacterial strains resistant to penicillins and cephalosporins (Tem 1 and P99 are respectively produced by E. coli 250HT21 and E.Cloacae 293 HT6).
# (§6) The bacteria are cultured in 37g/l brain-heart infusion (DIFCO), at 37° C. They are harvested at the end of the exponential phase, cooled and centrifuged. The bacterial residues are dissolved in 50 mM sodium phosphate buffer pH 7.0 and again centrifuged. The bacteria are dissolved in two volumes of this same buffer and lysed using a French-Press held at 4° C. After centrifuging 1 h at 100 000g, at 4° C., the supernatants containing the soluble fraction of the bacterial extracts are collected and frozen to −80° C.
# (§7) B. Determination β-lactamase Activity
# (§8) The method uses Nitrocefin (OXOID) as substrate, a chromogenic cephalosporin, whose hydrolysis product by β-lactamases is red and absorbed at 485 nm.
# (§9) β-lactamase activity is determined kinetically by measuring the variation in absorbance at 485 nm resulting from hydrolysis of the substrate on a plate spectrophotometer (Spectra Max Plus by Molecular Devices). Experiments are conducted at 37° C. The quantity of enzyme was normalized and measurements are taken at initial velocity.
# (§10) C. Determination of β-Lactamase Inhibiting Activity
# (§11) The measurements are taken with pre-incubation of the enzyme and of the inhibitor (5 min). The products are assayed at 11 concentrations. The reaction mixture contains 100 μM Nitrocefin and 50 mM sodium phosphate buffer, pH 7.0, and 0.1 mg/mL bovine serum albumin.
# (§12) Hydrolysis velocities are measured with and without inhibitor. The inhibitor concentration is determined which inhibits 50% of the Nitrocefin hydrolysis reaction by the enzyme (IC50). Data is processed using GraFit software (Erithacus Software). The IC50 values are the mean of the IC50s obtained in at least 2 different experiments.
# [3] = tested on: E. cloacae 293HT6 (P99 AmpC); experiment: MIC of ceftazidime alone or with inhibitor, micro-dilution in liquid medium, strain 293HT6; type: cell-based; conditions: 24 h; for MIC of CAZ in combination with inhibitor (CAZ-Inhibitor): inhibitor at constant 4 μg/mL
# Method: as §1, §2, §3
# E. coli TEM1 β-lactamase = molecular target: T2, E. coli TEM1 β-lactamase (Escherichia coli, UniProt P62593); experiment: β-lactamase inhibiting activity on isolated enzyme (Nitrocefin hydrolysis), TEM1; type: biochemical; conditions: 5 min pre-incubation, 100 μM Nitrocefin, pH 7.0, 37° C., mean of at least 2 experiments, read-out: IC50 enzyme inhibition
# T2 construct: The β-lactamases are isolated from bacterial strains resistant to penicillins and cephalosporins; endogenous in cells; host or cells: E. coli 250HT21 (soluble fraction of French-press lysate)
# Method: as §4, §5, §6, §7, §8, §9, §10, §11, §12
# E. coli 250BE6 (TEM3) = experiment: MIC of ceftazidime alone or with inhibitor, micro-dilution in liquid medium, strain 250BE6; type: cell-based; conditions: 24 h; for MIC of CAZ in combination with inhibitor (CAZ-Inhibitor): E. coli 250BE6 TEM3, inhibitor at constant 4 μg/mL
# Method: as §1, §2, §3
# E. cloacae 293HT4 (AmpC) = experiment: MIC of ceftazidime alone or with inhibitor, micro-dilution in liquid medium, strain 293HT4; type: cell-based; conditions: 24 h; for MIC of CAZ in combination with inhibitor (CAZ-Inhibitor): inhibitor at constant 4 μg/mL
# Method: as §1, §2, §3
# [4] = Enterobacter cloacae, no inhibitor, read-out: MIC CAZ alone
# T2 sequence (P62593 24-286 limits assumed): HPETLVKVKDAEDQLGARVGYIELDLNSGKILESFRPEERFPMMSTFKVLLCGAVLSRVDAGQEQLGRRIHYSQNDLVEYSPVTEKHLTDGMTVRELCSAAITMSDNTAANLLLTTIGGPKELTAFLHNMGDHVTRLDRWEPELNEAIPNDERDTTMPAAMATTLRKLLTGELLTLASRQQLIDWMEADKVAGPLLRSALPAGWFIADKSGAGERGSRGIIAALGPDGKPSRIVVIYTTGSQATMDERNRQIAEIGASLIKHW
# T1 sequence (P05364 21-381): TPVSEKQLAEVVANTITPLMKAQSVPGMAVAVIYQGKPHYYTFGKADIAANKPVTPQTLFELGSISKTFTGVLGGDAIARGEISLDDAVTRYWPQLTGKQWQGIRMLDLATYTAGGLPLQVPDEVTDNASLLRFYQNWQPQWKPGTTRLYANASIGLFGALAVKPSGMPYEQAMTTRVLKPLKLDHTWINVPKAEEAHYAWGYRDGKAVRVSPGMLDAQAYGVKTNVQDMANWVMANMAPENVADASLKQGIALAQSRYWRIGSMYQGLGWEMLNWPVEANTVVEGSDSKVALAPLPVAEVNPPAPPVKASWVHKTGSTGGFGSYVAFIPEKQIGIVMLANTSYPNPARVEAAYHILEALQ
Compound,MIC of CAZ in combination with inhibitor (CAZ-Inhibitor) [1],IC50 [2],MIC of CAZ in combination with inhibitor (CAZ-Inhibitor) [3],IC50 (E. coli TEM1 β-lactamase),MIC of CAZ in combination with inhibitor (CAZ-Inhibitor) (E. coli 250BE6 (TEM3)),MIC of CAZ in combination with inhibitor (CAZ-Inhibitor) (E. cloacae 293HT4 (AmpC)),"MIC ([1]; Citrobacter freundii, no inhibitor, read-out: MIC CAZ alone)","MIC [3, 4]","MIC (E. coli 250BE6 (TEM3); Escherichia coli, read-out: MIC CAZ alone)",MIC (E. cloacae 293HT4 (AmpC); [4])
"NC(=O)[C@@H]1CC[C@@H]2CN1C(=O)N2OCC(=O)O [Example 1, trans-(1R,2S,5R)-6-(2-hydroxy-2-oxoethoxy)-7-oxo-1,6-diazabicyclo[3.2.1]octane-2-carboxamide, reference compound]",>32 µg/mL,54 µM,>32 µg/mL,720 nM,2 µg/mL,>32 µg/mL,–,–,–,–
"CC(C)(O/N=C(\C(=O)N[C@@H]1C(=O)N2C(C(=O)[O-])=C(C[n+]3ccccc3)CS[C@H]12)c1csc(N)n1)C(=O)O [CAZ, ceftazidime, reference compound]",–,–,–,–,–,–,> 32 µg/mL,> 32 µg/mL,> 32 µg/mL,> 32 µg/mL
"NC(=O)[C@@H]1CC[C@@H]2CN1C(=O)N2OC(F)(F)C(=O)O [Example 3, Sodium salt of trans-(1R,2S,5R)-6-(1,1-difluoro-2-hydroxy-2-oxoethoxy)-7-oxo-1,6-diazabicyclo[3.2.1]octane-2-carboxamide]",1 µg/mL,2.2 µM,1 µg/mL,0.8 nM,0.25 µg/mL,0.5 µg/mL,–,–,–,–
"NC(=O)[C@@H]1CC[C@@H]2CN1C(=O)N2OC(F)C(=O)O (mixture of isomers) [Example 2, trans-(1R,2S,5R)-6-(1-fluoro-2-hydroxy-2-oxoethoxy)-7-oxo-1,6-diazabicyclo[3.2.1]octane-2-carboxamide]",4 µg/mL,4.6 µM,8 µg/mL,2 nM,0.25 µg/mL,8 µg/mL,–,–,–,–
